From paper PMC7115580 (European Journal of Medicinal Chemistry, 2017)

The compounds below were run against S31N mutant M2 channel (Influenza A virus, UniProt P0DOF5, S31N).
Format: biochemical
For `CC1(C)N=C(N)N=C(N)N1c1ccc(Cl)cc1` [Compound 1, cycloguanil, reference compound], the “Inhibition of S31N mutant M2 channel” value was “neither of the three compounds significantly inhibited”. `CC1(C)N=C(N)N=C(N)N1c1cccc(C(F)(F)F)c1` [Compound 14] was tested, and the “Inhibition of S31N mutant M2 channel” value was “neither of the three compounds significantly inhibited”. For `CC1(C)N=C(N)N=C(N)N1c1ccc(Cl)c(Cl)c1` [Compound 16], the “Inhibition of S31N mutant M2 channel” value was “neither of the three compounds significantly inhibited”.
